Test results: article PMC8582824, “Targeting DDX3X Helicase Activity with BA103 Shows Promising Therapeutic Effects in Preclinical Glioblastoma Models” (Cancers, 2021)

Experiments:
β-catenin = β-catenin expression by Western blot and immunofluorescence; type: cell-based; conditions: U87 and U251 cells, 48 h
Description: Cells were incubated for 15 min in lysis buffer containing 1% triton, 0.1% SDS, 2 mmol/L CaCl2, 10 mg/mL orthovanadate, and 1× protease inhibitors cocktail (Sigma-Aldrich, St. Louis, MO, USA). Forty micrograms of proteins were electrophoresed in 12% SDS-polyacrylamide gel, and then, the gel was placed onto a Trans-Blot Turbo mini nitrocellulose transfer pack and transferred using a Trans-Blot Turbo Transfer System (Bio-Rad Laboratories, Hercules, CA, USA). The membrane was incubated with […] primary antibody and then with […] horseradish peroxidase (HRP)-conjugated secondary antibodies (Santa Cruz Biotechnology, Dallas, TX, USA). […]
Cells grown on coverslips (2 × 10^4 cells/cm^2) were fixed in 4% w/v paraformaldehyde in PBS for 10 min at RT and permeabilized in PBS containing 0.1% v/v Triton X-100 for 5 min at RT. […] After extensive washings, cells were mounted with ProLong Gold antifade mounting medium (Life Technologies Corporation, Carlsbad, CA, USA) and observed by a fluorescence microscope equipped with a digital camera (AXIOPHOT, Carl Zeiss, Oberkochen, Germany).
To better characterize the antiproliferative effect of BA103, we performed further biological evaluation using GBM cell lines. The expression of DDX3X was evaluated in U87 and U251 cell lines by Western blot analysis in comparison with HepG2 cells, resulting in basally detectable mainly in U87 cells (Figure 6A). […]

HepG2 = assay: MTS cytotoxicity assay, HepG2 cells; type: cell-based; conditions: HepG2, 72 h
Description: For CellTiter 96® Aqueous One Solution Cell Proliferation Assay (MTS) (Promega, Madison, WI, USA), cells were seeded at 5 × 10^3 per well in 96-well plates in quadruplicate together a control with no cells to evaluate the background. After 24 h, the culture medium was removed, and fresh medium containing increasing concentrations of chemical compounds was added to cells. The fixed final concentrations were 0.1 μM, 1 μM, 10 μM, and 100 μM. DMSO was the vehicle used for dilution of the compounds, and its final concentration on cells was less than 0.2%. Medium-only containing wells were included as controls. […] After 3 h at 37 °C in a humidified, 5% CO2 atmosphere, the absorbance at 492 nm was recorded using an EZREAD400 (Biochrom, Cambridge, United Kingdom) plate reader. The average 490 nm absorbance from the “no cell” control wells was subtracted from all other values to yield background-corrected absorbance. Dose–response curves and CC50 values have been calculated by plotting the absorbance data as a function of inhibitor concentrations and fitting the data by least-squares nonlinear regression, according to the method of Marquardt–Levenberg, with the computer program GraphPad Prism 6.0.
Cells were incubated with a scalar concentration of DDX3X inhibitors, and after 72 h of treatment, cell viability was assessed by cytotoxicity assay. […]

SMILES: CCCCc1cn(-c2ccc(NC(=O)Nc3ccccc3C(F)(F)F)cc2)nn1 [BA103, 1-(4-(4-Butyl-1H-1,2,3-triazol-1-yl)phenyl)-3-(2-(trifluoromethyl)phenyl)urea]
- expression of β-catenin (β-catenin): reduction in the expression of β-catenin
- CC50 (HepG2): low micromolar range
